This note sets out measurements from ChEMBL document CHEMBL5579832, “Design, synthesis, and biological evaluation of pyrido[2,3-d]pyrimidin-7(8H)-one derivatives as potent USP1 inhibitors” (Eur J Med Chem, 2024).

A short description of data set [1]: AUC (0 to t) in male ICR mouse at 10 mg/kg, po administered as single dose and measured after 24 hrs. It counts as ADME, organism-based. Particulars: in vivo.
Data set [2] deals with T1, Ubiquitin carboxyl-terminal hydrolase 15 (Homo sapiens) (UniProt Q9Y4E8).
T1 sequence (whole entry): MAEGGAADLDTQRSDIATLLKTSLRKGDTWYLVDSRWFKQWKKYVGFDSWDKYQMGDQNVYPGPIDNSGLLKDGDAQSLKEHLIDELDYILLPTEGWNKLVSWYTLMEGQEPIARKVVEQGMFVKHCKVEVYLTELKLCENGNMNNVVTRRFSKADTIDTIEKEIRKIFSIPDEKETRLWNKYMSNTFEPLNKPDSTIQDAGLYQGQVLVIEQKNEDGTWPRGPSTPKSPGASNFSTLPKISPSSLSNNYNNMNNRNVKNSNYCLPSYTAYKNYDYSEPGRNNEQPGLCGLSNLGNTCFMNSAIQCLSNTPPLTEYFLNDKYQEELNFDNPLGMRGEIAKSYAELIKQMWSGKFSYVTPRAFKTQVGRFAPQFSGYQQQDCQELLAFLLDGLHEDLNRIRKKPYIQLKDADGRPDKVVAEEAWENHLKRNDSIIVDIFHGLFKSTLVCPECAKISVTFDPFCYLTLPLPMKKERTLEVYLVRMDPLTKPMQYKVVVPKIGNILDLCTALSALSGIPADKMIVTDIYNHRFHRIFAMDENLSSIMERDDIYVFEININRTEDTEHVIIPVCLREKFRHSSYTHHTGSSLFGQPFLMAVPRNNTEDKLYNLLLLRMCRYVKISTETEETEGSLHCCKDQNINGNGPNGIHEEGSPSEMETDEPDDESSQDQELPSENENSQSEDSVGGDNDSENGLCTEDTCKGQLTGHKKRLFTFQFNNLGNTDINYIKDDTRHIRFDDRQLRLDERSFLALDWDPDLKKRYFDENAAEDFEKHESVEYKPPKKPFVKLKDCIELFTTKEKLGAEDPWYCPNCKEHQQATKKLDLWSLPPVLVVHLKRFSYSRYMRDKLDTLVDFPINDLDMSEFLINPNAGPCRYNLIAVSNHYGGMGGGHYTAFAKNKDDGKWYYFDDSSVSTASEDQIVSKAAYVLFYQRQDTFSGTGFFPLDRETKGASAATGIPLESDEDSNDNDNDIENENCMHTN
Kind of data set: Inhibition of recombinant human 6His-tagged USP15 using diubiquitin as a substrate at 0 to 10 uM preincubated for 15 mins followed by substrate addition and measured after 2 hrs by SDS-PAGE analysis. The note with it: dose 0-10 µM, time 135.0 min.

In data set [3] the test system is Olaparib-resistant MDA-MB-436. Kind of data set: Induction of cell cycle arrest in human Olaparib-resistant MDA-MB-436 cell assessed as increase in cells at S phase at 1 uM incubated for 24 hrs by PI staining based flow cytometry analysis. It counts as functional. In general terms: In flow cytometry, cells or beads pass a laser one at a time.
Data set [4] deals with Olaparib-resistant MDA-MB-436. The data set can be described thus: Inhibition of colony formation in human Olaparib-resistant MDA-MB-436 cell at 100 nM measured after 7 days in the presence of olaparib by SRB staining based assay relative to control. Format: functional. Particulars: Olaparib-resistant MDA-MB-436, 168 h, time 7 day.
In data set [5] the target is Ubiquitin carboxyl-terminal hydrolase 1/WD repeat-containing protein 48 (Homo sapiens) (UniProt O94782+Q8TAF3). Particulars: NCI-H1299, dose 20-500 nM, time 24.0 hrs.

Active and inactive are the calls of the source. The rule behind the calls is not given here.

A word on the AUC(0-t): it is the area under the concentration-time curve up to a stated or last time point. A high value points to more exposure. In general, inhibition refers to the change of the read-out against control, counted positive when it falls. As for `COc1ncnc(C2CC2)c1-c1ncc2ccc(=O)n(Cc3ccc(-c4nc(C(F)(F)F)cn4C(C)C)cc3)c2n1`, the AUC(0-t) at 24 h in data set [1] was 35800 ng·h/mL. Further, in data set [2], the inhibition entry was “inactive”. Also, in data set [3], the result was Active. For the same molecule, the inhibition at 0.1 µM in data set [4] was determined as 50%. The inhibition entry in data set [5] is “Dose-Dependent Effect”.
